Test results reported in patent US20260325538A1, “THERAPY” (priority 2023, published 2026).

System: Pseudomonas aeruginosa ST773 (NDM-1, OXA-395, PDC-16)
Assay: Checkerboard MIC, fixed concentration of sBLI (Examples 18-23)
Format: cell-based
Description: The antibiotics and serine β-lactamase-inhibitors (sBLIs) were purchased from the following suppliers: Ceftazidime (CAZ): Sigma-Aldrich; Cefepime (FEP): Sigma-Aldrich; Cefpodoxime (CEFP): MedChemExpress; Sulbactam (SUL): Sigma-Aldrich Avibactam (AVI): Biosynth; Vaborbactam (VAB): ABCR; Tazobactam (TAZ): Sigma-Aldrich; Taniborbactam (TAN): Sigma-Aldrich.
In each of Examples 3-23, the compound of Example 26 of WO 2018/033719 was employed as the zinc chelator. The following abbreviations are used in these examples: sBLI means serine-β-lactamase inhibitor; CFU means colony-forming unit, which is a group of microbes that grows from a single cell on a petri plate; DMSO means dimethyl sulfoxide; MHB means Mueller-Hinton broth; caMHB means cation-adjusted Mueller-Hinton broth; MIC means minimum inhibitory concentration—the lower the MIC, the more efficient the combination against the respective bacterial strain.
General Protocol 2 Used in Examples 11-23 Employing a Fixed Concentration of sBLI within Each Experiment:
Antimicrobial susceptibility testing (AST) by broth microdilution (MIC determination) was performed according to The European Committee on Antimicrobial Susceptibility Testing (EUCAST) guidelines (see Reading guide for broth microdilution Version 5.0, 2024: https://www.eucast.org).
Sterile clear round bottom polystyrene (non-treated) 96-well microplates (Corning 3788) were used for making serial two-fold dilutions of the antibiotic in cation-adjusted Mueller Hinton II broth (caMHB; Thermo Scientific, T3462, containing 29.4 μM Zn^2+ or MILLIPORE, 90922-500G, containing 5.6 μM Zn^2+), across the columns of the microtiter plate (128-0.06 μg/mL; columns 1-12).
The checkerboard plates were all modified by adding a serine β-lactamase inhibitor (sBLI) at a fixed concentration of 16 μg/mL. Additionally, the zinc chelator was added at various fixed concentrations. Samples were mixed so that all plates contained a control containing antibiotic alone (no sBLI, no zinc chelator), a sample containing antibiotic and sBLI (double combination; no zinc chelator), and a sample containing antibiotic, sBLI and zinc chelator (triple combination). All test wells used in each plate contained growth medium (caMHB), and inoculated bacteria at a final inoculum between 3-7×10^5 CFU/mL. […] Synergy for the triple combination (antibiotic, sBLI, and zinc chelator) was defined as when the MIC in any of the rows containing the zinc chelator in combination with antibiotic and sBLI (triple combination), was lower than for antibiotic alone and lower than for the antibiotic and sBLI double combination.
An X in rows 1-4 in the table indicates growth of the bacterial inoculum, while a blank cell indicates no growth. Concentrations (μg/mL) of CAZ are given in row 0. AVI and the zinc chelator were added in fixed concentrations (AVI at 16 μg/mL in rows 2-4, zinc chelator at 16 μg/mL in row 3 and at 8 μg/mL in row 4). As a control, the effect of CAZ alone was tested (row 1). All wells contained bacterial growth medium (caMHB, 29.4 μM Zn^2+) and were inoculated with the test bacterium. The grey cells indicate the CAZ MIC.
An X in rows 1-4 in the table indicates growth of the bacterial inoculum, while a blank cell indicates no growth. Concentrations (μg/mL) of FEP are given in row 0. SUL and the zinc chelator were added in fixed concentrations (SUL at 16 μg/mL in rows 2-4, zinc chelator at 16 μg/mL in row 3 and at 8 μg/mL in row 4). As a control, the effect of FEP alone was tested (row 1). All wells contained bacterial growth medium (caMHB, 29.4 μM Zn^2+) and were inoculated with the test bacterium. The grey cells indicate the FEP MIC.
An X in rows 1-5 in the table indicates growth of the bacterial inoculum, while a blank cell indicates no growth. Concentrations (μg/mL) of CAZ are given in row 0. AVI and the zinc chelator were added in fixed concentrations (AVI at 16 μg/mL in rows 2-5, zinc chelator at 16 μg/mL in row 3, at 8 μg/mL in row 4, and at 4 μg/mL in row 5). […]

Measured: synergy with the zinc chelator

CN(C[C@H](O)[C@@H](O)[C@H](O)[C@H](O)CO)C(=O)c1ccc(CN(Cc2ccccn2)Cc2ccccn2)nc1 [zinc chelator]
Synergy: zinc chelator 4 μg/mL, with FEP and AVI 16 μg/mL, caMHB 5.6 μM Zn2+ | zinc chelator 4 μg/mL, with FEP and SUL 16 μg/mL, caMHB 5.6 μM Zn2+ | zinc chelator 8 μg/mL, with CAZ and AVI 16 μg/mL, caMHB 5.6 μM Zn2+ | zinc chelator 8 μg/mL, with CAZ and AVI 16 μg/mL, caMHB 29.4 μM Zn2+ | zinc chelator 8 μg/mL, with FEP and AVI 16 μg/mL, caMHB 5.6 μM Zn2+ | zinc chelator 8 μg/mL, with FEP and SUL 16 μg/mL, caMHB 5.6 μM Zn2+ | zinc chelator 8 μg/mL, with FEP and TAZ 16 μg/mL, caMHB 5.6 μM Zn2+ | zinc chelator 16 μg/mL, with CAZ and AVI 16 μg/mL, caMHB 5.6 μM Zn2+ | zinc chelator 16 μg/mL, with CAZ and AVI 16 μg/mL, caMHB 29.4 μM Zn2+ | zinc chelator 16 μg/mL, with FEP and AVI 16 μg/mL, caMHB 5.6 μM Zn2+ | zinc chelator 16 μg/mL, with FEP and SUL 16 μg/mL, caMHB 5.6 μM Zn2+ | zinc chelator 16 μg/mL, with FEP and SUL 16 μg/mL, caMHB 29.4 μM Zn2+ | zinc chelator 16 μg/mL, with FEP and TAZ 16 μg/mL, caMHB 5.6 μM Zn2+
